Measurements as given in the supplement of paper PMC11061612.

What was measured:
Assay in all cases: Bliss excess, mean over the matrix (fraction); higher = more synergy
[1] = tested on: GR-ST (B-Lymphoblastic Leukemia)
Summary of the method: (§1)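 Bliss excess equals the observed combination effect minus the expected value EA + EB − EA·EB, where EA and EB are the effects of each agent alone. Combination Emax is the second-highest inhibition within the matrix. Inhibition was scaled from CellTiter-Glo 2.0 luminescence, with 0 set by vehicle wells and 1 by blank wells, after 72 hours of two-drug dosing of cells plated in 1536-well plates.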

[2] = tested on: DND-41 (T-Lymphoblastic Leukemia)
Summary of the method: as §1

[3] = tested on: KARPAS-45 (T-Lymphoblastic Leukemia)
Summary of the method: as §1

[4] = tested on: BFTC-905 (Bladder Carcinoma)
Summary of the method: as §1

[5] = tested on: MKN28 (Gastric Carcinoma)
Summary of the method: as §1

TC-71 (Ewing's Sarcoma) = tested on: TC-71 (Ewing's Sarcoma)
Summary of the method: as §1

[6] = tested on: SW837 (Colorectal Carcinoma)
Summary of the method: as §1

[7] = tested on: HDQ-P1 (Breast Carcinoma)
Summary of the method: as §1

[8] = tested on: CAMA-1 (Breast Carcinoma)
Summary of the method: as §1

[9] = tested on: NCI-H1792 (Lung Adenocarcinoma)
Summary of the method: as §1

WIL2-NS (Non-Cancerous) = tested on: WIL2-NS (Non-Cancerous)
Summary of the method: as §1

[10] = tested on: TE-6 (Esophageal Squamous Cell Carcinoma)
Summary of the method: as §1

[11] = tested on: KM12 (Colorectal Carcinoma)
Summary of the method: as §1

[12] = tested on: TOV-112D (Ovarian Carcinoma)
Summary of the method: as §1

[13] = tested on: EVSA-T (Breast Carcinoma)
Summary of the method: as §1

[14] = tested on: SW1417 (Colorectal Carcinoma)
Summary of the method: as §1

[15] = tested on: L-540 (Hodgkin's Lymphoma)
Summary of the method: as §1

[16] = tested on: K-562 (Chronic Myelogenous Leukemia)
Summary of the method: as §1

MEL-JUSO (Melanoma) = tested on: MEL-JUSO (Melanoma)
Summary of the method: as §1

[17] = tested on: NCI-H847 (Small Cell Lung Carcinoma)
Summary of the method: as §1

CC1(C)CCC(CN2CCN(c3ccc(C(=O)NS(=O)(=O)c4ccc(NCC5CCOCC5)c([N+](=O)[O-])c4)c(Oc4cnc5[nH]ccc5c4)c3)CC2)=C(c2ccc(Cl)cc2)C1 [Venetoclax] + C=CCn1c(=O)c2cnc(Nc3ccc(N4CCN(C)CC4)cc3)nc2n1-c1cccc(C(C)(C)O)n1 [AZD1775] (first compound max 1 µM, partner max 1 µM)
Bliss excess [1]: -0.0109
Bliss excess [2]: 0.103
Bliss excess [3]: -0.0002
Bliss excess [4]: 0.0078
Bliss excess [5]: -0.0029
Bliss excess (TC-71 (Ewing's Sarcoma)): -0.0215
Bliss excess [6]: 0.0009
Bliss excess [7]: -0.014
Bliss excess [8]: 0.0033
Bliss excess [9]: 0.0479
Bliss excess (WIL2-NS (Non-Cancerous)): 0.054
Bliss excess [10]: -0.0859
Bliss excess [11]: -0.0538
Bliss excess [12]: -0.0375
Bliss excess [13]: 0.0075
Bliss excess [14]: -0.0132
Bliss excess [15]: 0.069
Bliss excess [16]: 0.0486
Bliss excess (MEL-JUSO (Melanoma)): -0.0447
Bliss excess [17]: -0.0022

Cc1cc2ncnn2cc1Nc1ncc2c(n1)n(C1CCOCC1)c(=O)n2C [AZD7648] + CCN(CCO)CCCOc1ccc2c(Nc3cc(CC(=O)Nc4cccc(F)c4)[nH]n3)ncnc2c1 [AZD2811] (first compound max 10 µM, 7x7, partner max 1 µM)
Bliss excess [1]: -0.0705
Bliss excess [2]: 0.0308
Bliss excess [3]: -0.0341
Bliss excess [4]: 0.0469
Bliss excess [5]: 0.0124
Bliss excess (TC-71 (Ewing's Sarcoma)): -0.0301
Bliss excess [6]: 0.0018
Bliss excess [7]: -0.0154
Bliss excess [8]: -0.0677
Bliss excess [9]: 0.0321
Bliss excess (WIL2-NS (Non-Cancerous)): 0.0024
Bliss excess [10]: 0.0257
Bliss excess [11]: 0.004
Bliss excess [12]: 0.0263
Bliss excess [13]: 0.0122
Bliss excess [14]: -0.106
Bliss excess [15]: 0.048
Bliss excess [16]: 0.0127
Bliss excess (MEL-JUSO (Melanoma)): 0.0461
Bliss excess [17]: -0.0211

CN(C)CCCOc1ccc(-c2ccc3ncc4c(c3c2)n(C2CCOCC2)c(=O)n4C)cn1 [AZD0156] + C=CCn1c(=O)c2cnc(Nc3ccc(N4CCN(C)CC4)cc3)nc2n1-c1cccc(C(C)(C)O)n1 [AZD1775] (first compound max 1 µM, partner max 1 µM)
Bliss excess [1]: -0.0229
Bliss excess [2]: -0.0029
Bliss excess [3]: -0.0182
Bliss excess [4]: -0.0022
Bliss excess [5]: -0.0875
Bliss excess (TC-71 (Ewing's Sarcoma)): 0.0685
Bliss excess [6]: -0.0431
Bliss excess [7]: 0.0118
Bliss excess [8]: -0.0726
Bliss excess [9]: -0.0041
Bliss excess (WIL2-NS (Non-Cancerous)): 0.0135
Bliss excess [10]: -0.045
Bliss excess [11]: -0.0223
Bliss excess [12]: 0.0039
Bliss excess [13]: -0.0618
Bliss excess [14]: -0.0213
Bliss excess [15]: 0.0604
Bliss excess [16]: -0.0269
Bliss excess (MEL-JUSO (Melanoma)): 0.0243
Bliss excess [17]: -0.0114

CN(CCO)CC[C@H](CSc1ccccc1)Nc1ccc(S(=O)(=O)NC(=O)c2ccc(N3CCC([C@@H](O)c4ccccc4-c4ccc(Cl)cc4)CC3)cc2)cc1S(=O)(=O)C(F)(F)F [AZD4320] + Cn1cnc2c(F)c(Nc3ccc(Br)cc3Cl)c(C(=O)NOCCO)cc21 [Selumetinib] (first compound max 1 µM, 7x7, partner max 3 µM)
Bliss excess [1]: -0.0417
Bliss excess [2]: -0.0181
Bliss excess [3]: -0.0248
Bliss excess [4]: -0.0411
Bliss excess [5]: 0.0272
Bliss excess (TC-71 (Ewing's Sarcoma)): 0.0614
Bliss excess [6]: -0.0184
Bliss excess [7]: 0.0877
Bliss excess [8]: 0.0043
Bliss excess [9]: 0.0416
Bliss excess (WIL2-NS (Non-Cancerous)): 0.0074
Bliss excess [10]: -0.0277
Bliss excess [11]: 0.0423
Bliss excess [12]: 0.0107
Bliss excess [13]: 0.0703
Bliss excess [14]: 0.056
Bliss excess [15]: -0.0184
Bliss excess [16]: 0.0465
Bliss excess (MEL-JUSO (Melanoma)): -0.0081
Bliss excess [17]: 0.0247

C=CCn1c(=O)c2cnc(Nc3ccc(N4CCN(C)CC4)cc3)nc2n1-c1cccc(C(C)(C)O)n1 [AZD1775] + O=C(c1cc(Cc2n[nH]c(=O)c3ccccc23)ccc1F)N1CCN(C(=O)C2CC2)CC1 [Olaparib] (first compound max 1 µM, partner max 10 µM)
Bliss excess [1]: -0.0334
Bliss excess [2]: -0.0025
Bliss excess [3]: -0.0302
Bliss excess [4]: -0.0292
Bliss excess [5]: 0.0046
Bliss excess (TC-71 (Ewing's Sarcoma)): -0.0626
Bliss excess [6]: -0.0125
Bliss excess [7]: -0.0441
Bliss excess [8]: -0.0452
Bliss excess [9]: -0.0261
Bliss excess (WIL2-NS (Non-Cancerous)): -0.0087
Bliss excess [10]: -0.0297
Bliss excess [11]: -0.0201
Bliss excess [12]: -0.0139
Bliss excess [13]: 0.0622
Bliss excess [14]: -0.0605
Bliss excess [15]: -0.045
Bliss excess [16]: -0.0678
Bliss excess (MEL-JUSO (Melanoma)): -0.0523
Bliss excess [17]: 0.0627

CC1(C)CCC(CN2CCN(c3ccc(C(=O)NS(=O)(=O)c4ccc(NCC5CCOCC5)c([N+](=O)[O-])c4)c(Oc4cnc5[nH]ccc5c4)c3)CC2)=C(c2ccc(Cl)cc2)C1 [Venetoclax] + CN(C)CCCOc1ccc(-c2ccc3ncc4c(c3c2)n(C2CCOCC2)c(=O)n4C)cn1 [AZD0156] (first compound max 1 µM, 7x7, partner max 1 µM)
Bliss excess [1]: -0.0363
Bliss excess [2]: 0.0278
Bliss excess [3]: -0.0096
Bliss excess [4]: 0.0232
Bliss excess [5]: 0.0042
Bliss excess (TC-71 (Ewing's Sarcoma)): -0.0022
Bliss excess [6]: -0.0067
Bliss excess [7]: -0.0292
Bliss excess [8]: -0.0161
Bliss excess [9]: 0.0133
Bliss excess (WIL2-NS (Non-Cancerous)): -0.0296
Bliss excess [10]: 0.0055
Bliss excess [11]: -0.0126
Bliss excess [12]: -0.0341
Bliss excess [13]: -0.0005
Bliss excess [14]: -0.0332
Bliss excess [15]: 0.0137
Bliss excess [16]: -0.0005
Bliss excess (MEL-JUSO (Melanoma)): -0.0128
Bliss excess [17]: 0.037

CC1(C)CCC(CN2CCN(c3ccc(C(=O)NS(=O)(=O)c4ccc(NCC5CCOCC5)c([N+](=O)[O-])c4)c(Oc4cnc5[nH]ccc5c4)c3)CC2)=C(c2ccc(Cl)cc2)C1 [Venetoclax] + C1CN(CCC1(C(=O)N[C@@H](CCO)C2=CC=C(C=C2)Cl)N)C3=NC=NC4=C3C=CN4 [Capivasertib] (first compound max 1 µM, 7x7, partner max 3 µM)
Bliss excess [1]: -0.0382
Bliss excess [2]: 0.0019
Bliss excess [3]: 0.0512
Bliss excess [4]: -0.0288
Bliss excess [5]: -0.0455
Bliss excess (TC-71 (Ewing's Sarcoma)): -0.0684
Bliss excess [6]: -0.0256
Bliss excess [7]: -0.0234
Bliss excess [8]: -0.056
Bliss excess [9]: -0.0549
Bliss excess (WIL2-NS (Non-Cancerous)): -0.0145
Bliss excess [10]: 0.0217
Bliss excess [11]: -0.041
Bliss excess [12]: -0.0285
Bliss excess [13]: -0.0371
Bliss excess [14]: -0.0744
Bliss excess [15]: -0.0178
Bliss excess [16]: -0.0902
Bliss excess (MEL-JUSO (Melanoma)): -0.0436
Bliss excess [17]: 0.0062
